In US8426596B2, “Process of producing bleach boosters” (BASF Aktiengesellschaft, priority 2005, dated 2013):
Counter-ions that a name gives are not always drawn.

Assays:
Type in all cases: biochemical
Termamyl (alpha amylase) = molecular target: T1, Termamyl (alpha amylase) (Bacillus licheniformis, UniProt P06278); test: Organic Catalyst/Enzyme Compatibility Test (alpha amylase activity assay), Termamyl; conditions: (Ac/Ab)x100; peracetic acid 5.0 ppm; organic catalyst 0.5 ppm; 40° C.; sample at 7 min 45 s
T1 construct: purchased Novozymes, Denmark
T1 sequence (P06278 30-512): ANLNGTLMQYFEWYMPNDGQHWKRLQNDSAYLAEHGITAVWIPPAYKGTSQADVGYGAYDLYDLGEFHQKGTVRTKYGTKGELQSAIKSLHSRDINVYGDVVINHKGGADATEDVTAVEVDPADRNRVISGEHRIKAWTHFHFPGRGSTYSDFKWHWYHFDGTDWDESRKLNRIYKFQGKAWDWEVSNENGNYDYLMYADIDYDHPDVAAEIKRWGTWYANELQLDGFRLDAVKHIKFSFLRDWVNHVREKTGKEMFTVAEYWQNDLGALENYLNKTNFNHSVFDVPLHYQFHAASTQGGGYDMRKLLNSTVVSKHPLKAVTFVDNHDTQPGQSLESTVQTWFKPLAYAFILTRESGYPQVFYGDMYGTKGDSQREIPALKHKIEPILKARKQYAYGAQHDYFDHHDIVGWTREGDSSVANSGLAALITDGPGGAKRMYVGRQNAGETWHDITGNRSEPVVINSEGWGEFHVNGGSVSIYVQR
Method: (§1) Organic Catalyst/Enzyme Compatibility Test
(§2) The test described below uses an alpha amylase activity assay to measure the impact of organic catalysts on the enzyme.
(§3) Equipment. UV/Vis spectrophotometer capable of measuring @ 415 nm, heated magnetic stirrer capable of 40° C., 5 ml Luer lock syringe and filters (Acrodisc 0.45 ? μm), pH meter, and balance (4-place analytical).
(§4) Reagents. Merck Amylase Kit (Merck Eurolab, Cat. No. 1.19718.0001); Trizma Base (Sigma Cat # T-1503, or equivalent); Calcium Chloride Dihydrate (Sigma Cat # C-5080, or equivalent); Sodium Thiosulfate Pentahydrate (Sigma Cat # S-6672 or equivalent); Hydrochloric Acid (VWR Cat # JT9535-0, or equivalent); Hardness solution (CTC Group, 3.00 gr/cc or equivalent); Sodium Percarbonate; Peracetic Acid (Aldrich, Cat. #26933-6 or equivalent); Amylase enzymes: Termamyl, Natalase, and Duramyl (Novozymes, Denmark); Granular detergent matrix containing no enzyme, organic catalyst or bleaching agents.
(§5) 1.) Solution Preparation: Prepare the Following:
(§6) • a.) TRIS Assay Buffer. Prepare 1 liter of 0.1M TRIS buffer, 0.5% sodium thiosulphate (W/V), 0.11% calcium chloride (w/v) at pH 8.3. • b.) Blank Detergent Solution. Prepare one liter of 0.5% enzyme and bleach free granular detergent product in deionized water (W/V) that is 250 ppm H2O2 (0.77 gm percarbonate) and 10 gpg hardness (880 UI of hardness). • c.) Termamyl, Duramyl and Natalase Stock. Make 100 ml solutions each of a 0.1633 mg active Termamyl per ml TRIS Buffer, a 0.1159 mg active Natalase per ml TRIS Buffer, and a 0.1596 mg active Duramyl per ml TRIS Buffer. • d.) Organic catalyst stocks. Make a 500 ppm in methanol solution of μm. • e.) Peracetic acid stock. Make a 3955 ppm peracetic acid solution in deionized water. • f.) Amylase reagent. Follow Merck kit instructions for preparing flacons (containers) 1 and 2 using flacon 3 and subsequent mixing of flacons 1 and 2 to produce the final reagent used in the amylase activity analysis. 2.) Sample Analysis • a.) Analysis of sample with enzyme only: Add 100 ml of blank detergent solution to a 150 ml beaker. Place beaker on heated stir plate and bring temperature to 40° C. with stirring. Add Y μl of enzyme stock to the beaker where Y=612 μL for Duramyl, 306 μl for Termamyl, or 918 μl for Natalase. Spike only enzyme of interest. Stir sample for 1 minute. Start timer. At 7 minutes 45 seconds, pull a sample and filter it using a 0.45 μm syringe filter (5 ml syringe). Mix 6 μl of filtered sample with 250 μL of amylase reagent in a cuvette and place the cuvette in a UV/VIS spectrophotometer and monitor change in absorbance at 415 nm. Determine length of time (tE) to the nearest second required to obtain an absorbance reading of 1.0 for each enzyme. Use each enzyme's tE in Steps 2.)b.) and 2.)c.) below. • b.) Analysis of sample with enzyme and peracetic acid only. Follow Step 2.)a.) except after enzyme addition, allow solution to stir for 1 minute then add 127 μl of peracetic acid stock and start timer. Pull sample at 7 minutes 45 seconds as in Step 2.)a.). Once sample and reagent are mixed, record the absorbance at tE for the respective enzyme. Designate such absorbance Ab. • c.) Analysis of sample with enzyme, peracetic acid, and organic catalyst. […] Once sample and reagent are mixed, record the absorbance at tE for the respective enzyme. Designate such absorbance A, 3.) Calculate Enzyme Compatibility Value (ECV) • a.) Calculate the ECV for each specific enzyme: termamyl (ECVter), duramyl (ECVdur) and natalase (ECVnat). […]

Duramyl (alpha amylase) = test: Organic Catalyst/Enzyme Compatibility Test (alpha amylase activity assay), Duramyl; conditions: (Ac/Ab)x100; peracetic acid 5.0 ppm; organic catalyst 0.5 ppm; 40° C.; sample at 7 min 45 s
Method: as §1, §2, §3, §4, §5, §6

Natalase (alpha amylase) = test: Organic Catalyst/Enzyme Compatibility Test (alpha amylase activity assay), Natalase; conditions: (Ac/Ab)x100; peracetic acid 5.0 ppm; organic catalyst 0.5 ppm; 40° C.; sample at 7 min 45 s
Method: as §1, §2, §3, §4, §5, §6

[1] = tested on: Termamyl, Duramyl and Natalase (alpha amylases); test: Organic Catalyst/Enzyme Compatibility Test, average over the three amylases; conditions: ECV=(ECVter+ECVdur+ECVnat)/3; peracetic acid 5.0 ppm; organic catalyst 0.5 ppm
Method: as §1, §2, §3, §4, §5, §6

| Compound | Enzyme Compatibility Value ECVter (Termamyl (alpha amylase)) | Enzyme Compatibility Value ECVdur (Duramyl (alpha amylase)) | Enzyme Compatibility Value ECVnat (Natalase (alpha amylase)) | Enzyme Compatibility Value ECV [1] |
| --- | --- | --- | --- | --- |
| CC(C)(C)OCC(C[N+]1=Cc2ccccc2CC1)OS(=O)(=O)[O-] (centres unmarked) [Entry 1, Sulfuric acid mono-[2-(3,4-dihydro-isoquinolin-2-yl)-1-((1,1-di-methylethoxy)methyl)ethyl] ester, internal salt, reference compound] | 51 | 86 | 58 | 65 |
| CCCCC(CC)COCC(C[N+]1=Cc2ccccc2CC1)OS(=O)(=O)[O-] (centres unmarked) [Entry 2, Sulfuric acid mono-[2-(3,4-dihydro-isoquinolin-2-yl)-1-(2-ethyl-hexyloxymethyl)-ethyl] ester, internal salt, reference compound] | 54 | 90 | 57 | 67 |
| O=S(=O)([O-])OCC[N+]1=Cc2ccccc2C(Cc2ccccc2)(Cc2ccccc2)C1 [Entry 3, 3,4-dihydro-4,4-di(phenylmethyl)-2-[2′-(sulfooxy)ethyl]-isoquinolinium, internal salt] | 101 | 100 | 103 | 101 |
| O=S(=O)([O-])CCC[N+]1=Cc2ccccc2C(Cc2ccccc2)(Cc2ccccc2)C1 [Entry 4, 3,4-dihydro-4,4-dibenzyl-2-(3-sulfopropyl)isoquinolinium, Internal salt] | 102 | 99 | 104 | 102 |
| Cc1ccc(CC2(Cc3ccc(C)cc3)C[N+](CCCS(=O)(=O)[O-])=Cc3ccccc32)cc1 [Entry 5, 3,4-dihydro-4,4-di(4-methylphenylmethyl)-2-(3-sulfopropyl)-isoquinolinium, internal salt] | 103 | 99 | 99 | 100 |
